SMILES strings stand for the structures. Converted amounts (≈) assume the structure as drawn.

For test [1], the system named is Staphylococcus aureus. The experiment in a line: Antimicrobial activity against Staphylococcus aureus FDA209P by serial dilution method. It counts as functional.
The test system of test [2] is Staphylococcus aureus. The experiment in a line: Antimicrobial activity against Staphylococcus aureus Smith by serial dilution method. It counts as functional.
For test [3], the system named is Staphylococcus aureus. The experiment in a line: Antimicrobial activity against methicillin-resistant Staphylococcus aureus N315 IR94 by serial dilution method. The test is classed as functional.
Test [4] has as its system Staphylococcus aureus. The experiment in a line: Antimicrobial activity against methicillin-resistant Staphylococcus aureus N315 IR94-HR-1 by serial dilution method. It counts as functional.
In test [5] the test system is Staphylococcus aureus. The experiment in a line: Antimicrobial activity against methicillin-resistant Staphylococcus aureus 70 by serial dilution method. It counts as functional.
Test [6] concerns Staphylococcus aureus. The experiment in a line: Antimicrobial activity against methicillin-resistant Staphylococcus aureus 92-1191 by serial dilution method. The test is classed as functional.
Test [7] deals with Staphylococcus aureus. The experiment in a line: Antimicrobial activity against Staphylococcus aureus ISP447 by serial dilution method. It counts as functional.
In test [8] the test system is Staphylococcus aureus. The experiment in a line: Antimicrobial activity against Staphylococcus aureus ISP217 by serial dilution method. It counts as functional.
In test [9] the test system is Staphylococcus aureus. The experiment in a line: (§1) Antimicrobial activity against Staphylococcus aureus 8325 by serial dilution method. The test is classed as functional.
The test system of test [10] is Staphylococcus aureus. Described as §1. The test is classed as functional. This is another data set of the same source.
The next test relates to Enterococcus faecalis. The experiment in a line: Antimicrobial activity against vancomycin-resistant Enterococcus faecalis NCTC-12201 by serial dilution method. It counts as functional.
The next test deals with Escherichia coli. The experiment in a line: Antimicrobial activity against Escherichia coli NIHJ JC-2 by serial dilution method. The test is classed as functional.
A further test concerns Enterococcus faecium. The experiment in a line: Antimicrobial activity against vancomycin-resistant Enterococcus faecium NCTC-12203 by serial dilution method.

The term MIC denotes the smallest concentration in the dilution series that meets the test's criterion for growth inhibition. Lower therefore signals inhibition by little substance. Turning to `CC[C@H]1OC(=O)[C@H](C)[C@@H](OCc2cn(-c3cnc4ccccc4c3)nn2)[C@H](C)[C@@H](O[C@@H]2O[C@H](C)C[C@H](N(C)C)[C@H]2O)[C@@]2(C)CC(C)=C(O2)[C@H](C)[C@@H](OC(=O)C(C)C)[C@]1(C)OC(=O)C(C)C`, the MIC amounted to 16 µg/mL (≈ 17.7 µM) with Staphylococcus aureus [1]; 32 µg/mL (≈ 35.3 µM) in the test with Staphylococcus aureus [2]; 8 µg/mL (≈ 8.83 µM) with Staphylococcus aureus [3]; 16 µg/mL (≈ 17.7 µM) against Staphylococcus aureus [4]; 16 µg/mL (≈ 17.7 µM) with Staphylococcus aureus [5]; 16 µg/mL (≈ 17.7 µM) against Staphylococcus aureus [6]. Further, the minimum inhibitory concentration (MIC) against Staphylococcus aureus [7] is 32 µg/mL (≈ 35.3 µM); in the test on Staphylococcus aureus [8], 16 µg/mL (≈ 17.7 µM); with Staphylococcus aureus [9] it was 32 µg/mL (≈ 35.3 µM); with Staphylococcus aureus [10], 8 µg/mL (≈ 8.83 µM); with Enterococcus faecalis it was 32 µg/mL (≈ 35.3 µM); in the test on Escherichia coli it was greater than 128 µg/mL. Besides, the lowest concentration to inhibit growth against Enterococcus faecium (MIC) was 16 µg/mL (≈ 17.7 µM).

For the compound `CC[C@H]1OC(=O)[C@H](C)[C@@H](OCc2cn(CSc3ccccc3)nn2)[C@H](C)[C@@H](O[C@@H]2O[C@H](C)C[C@H](N(C)C)[C@H]2O)[C@@]2(C)CC(C)=C(O2)[C@H](C)[C@@H](OC(=O)C(C)C)[C@]1(C)OC(=O)C(C)C`, the MIC in the test with Staphylococcus aureus [1] was determined as 16 µg/mL (≈ 17.8 µM); with Staphylococcus aureus [2], 32 µg/mL (≈ 35.5 µM); in the test on Staphylococcus aureus [3] it was 8 µg/mL (≈ 8.88 µM); with Staphylococcus aureus [4], 8 µg/mL (≈ 8.88 µM); with Staphylococcus aureus [5] it was 16 µg/mL (≈ 17.8 µM); in the test on Staphylococcus aureus [6], 16 µg/mL (≈ 17.8 µM). The MIC against Staphylococcus aureus [7] is 16 µg/mL (≈ 17.8 µM); against Staphylococcus aureus [8] it was 16 µg/mL (≈ 17.8 µM); against Staphylococcus aureus [9] it was 16 µg/mL (≈ 17.8 µM); in the test on Staphylococcus aureus [10], 16 µg/mL (≈ 17.8 µM); against Enterococcus faecalis, 16 µg/mL (≈ 17.8 µM); with Escherichia coli, greater than 128 µg/mL. The MIC in the test on Enterococcus faecium was found to be 16 µg/mL (≈ 17.8 µM).

Regarding `CC[C@H]1OC(=O)[C@H](C)[C@@H](OCc2cn(Cc3ccccc3)nn2)[C@H](C)[C@@H](O[C@@H]2O[C@H](C)C[C@H](N(C)C)[C@H]2O)[C@@]2(C)CC(C)=C(O2)[C@H](C)[C@@H](OC(=O)C(C)C)[C@]1(C)OC(=O)C(C)C`, the minimal inhibitory concentration (MIC) was 16 µg/mL (≈ 18.4 µM) against Staphylococcus aureus [1]; 32 µg/mL (≈ 36.8 µM) against Staphylococcus aureus [2]; 8 µg/mL (≈ 9.2 µM) in the test on Staphylococcus aureus [3]; 8 µg/mL (≈ 9.2 µM) in the test on Staphylococcus aureus [4]; 16 µg/mL (≈ 18.4 µM) against Staphylococcus aureus [5]; 16 µg/mL (≈ 18.4 µM) against Staphylococcus aureus [6]. For the same compound, the MIC against Staphylococcus aureus [7] is 16 µg/mL (≈ 18.4 µM); in the test with Staphylococcus aureus [8], 16 µg/mL (≈ 18.4 µM); in the test on Staphylococcus aureus [9] it was 16 µg/mL (≈ 18.4 µM); in the test on Staphylococcus aureus [10], 8 µg/mL (≈ 9.2 µM); against Enterococcus faecalis it was 16 µg/mL (≈ 18.4 µM); with Escherichia coli, greater than 128 µg/mL. This compound registered an MIC in the test with Enterococcus faecium of 16 µg/mL (≈ 18.4 µM).

`CC[C@H]1OC(=O)[C@H](C)[C@@H](O[C@H]2C[C@@](C)(OC)[C@@H](O)[C@H](C)O2)[C@H](C)[C@@H](O[C@@H]2O[C@H](C)C[C@H](N(C)C)[C@H]2O)[C@@]2(C)CC(C)=C(O2)[C@H](C)[C@@H](OC(=O)C(C)C)[C@]1(C)OC(=O)C(C)C`: the MIC is 16 µg/mL (≈ 18.7 µM) against Staphylococcus aureus [1]; 16 µg/mL (≈ 18.7 µM) against Staphylococcus aureus [2]; 16 µg/mL (≈ 18.7 µM) against Staphylococcus aureus [3]; 16 µg/mL (≈ 18.7 µM) against Staphylococcus aureus [4]; 32 µg/mL (≈ 37.4 µM) against Staphylococcus aureus [5]; 32 µg/mL (≈ 37.4 µM) against Staphylococcus aureus [6]. Also, the MIC in the test on Staphylococcus aureus [7] was 32 µg/mL (≈ 37.4 µM); with Staphylococcus aureus [8] it was 16 µg/mL (≈ 18.7 µM); in the test on Staphylococcus aureus [9] it was 32 µg/mL (≈ 37.4 µM); in the test on Staphylococcus aureus [10] it was 16 µg/mL (≈ 18.7 µM); against Enterococcus faecalis it was 64 µg/mL (≈ 74.8 µM); in the test on Escherichia coli it was greater than 128 µg/mL. This compound showed a minimum inhibitory concentration (MIC) in the test with Enterococcus faecium of 32 µg/mL (≈ 37.4 µM).

Consider `CC[C@H]1OC(=O)[C@H](C)[C@@H](O)[C@H](C)[C@@H](O[C@@H]2O[C@H](C)C[C@H](N(C)C)[C@H]2OC(C)=O)[C@@]2(C)CC(C)=C(O2)[C@H](C)[C@@H](OC(=O)C(C)C)[C@]1(C)OC(=O)C(C)C`, for which the MIC in the test on Staphylococcus aureus [1] is 64 µg/mL (≈ 86.5 µM); against Staphylococcus aureus [2] it was greater than 128 µg/mL; in the test on Staphylococcus aureus [3], 64 µg/mL (≈ 86.5 µM); in the test on Staphylococcus aureus [4] it was 64 µg/mL (≈ 86.5 µM); in the test with Staphylococcus aureus [5], 64 µg/mL (≈ 86.5 µM); with Staphylococcus aureus [6], 64 µg/mL (≈ 86.5 µM). The MIC with Staphylococcus aureus [7] was 128 µg/mL (≈ 173 µM); against Staphylococcus aureus [8], 64 µg/mL (≈ 86.5 µM); in the test with Staphylococcus aureus [9], 128 µg/mL (≈ 173 µM); against Staphylococcus aureus [10] it was 64 µg/mL (≈ 86.5 µM); in the test on Enterococcus faecalis it was 64 µg/mL (≈ 86.5 µM); in the test on Escherichia coli it was greater than 128 µg/mL. In the test with Enterococcus faecium, this compound came in with an MIC of 64 µg/mL (≈ 86.5 µM).

For `C#CCO[C@H]1[C@H](C)[C@@H](O[C@@H]2O[C@H](C)C[C@H](N(C)C)[C@H]2O)[C@@]2(C)CC(C)=C(O2)[C@H](C)[C@@H](OC(=O)C(C)C)[C@](C)(OC(=O)C(C)C)[C@@H](CC)OC(=O)[C@@H]1C`, the MIC against Staphylococcus aureus [1] worked out at 32 µg/mL (≈ 43.5 µM); in the test on Staphylococcus aureus [2], 32 µg/mL (≈ 43.5 µM); against Staphylococcus aureus [3], 16 µg/mL (≈ 21.7 µM); with Staphylococcus aureus [4] it was 16 µg/mL (≈ 21.7 µM); with Staphylococcus aureus [5], 16 µg/mL (≈ 21.7 µM); in the test with Staphylococcus aureus [6], 16 µg/mL (≈ 21.7 µM). Further, the MIC against Staphylococcus aureus [7] is 32 µg/mL (≈ 43.5 µM); with Staphylococcus aureus [8] it was 16 µg/mL (≈ 21.7 µM); in the test on Staphylococcus aureus [9], 32 µg/mL (≈ 43.5 µM); in the test with Staphylococcus aureus [10], 16 µg/mL (≈ 21.7 µM); in the test with Enterococcus faecalis, 16 µg/mL (≈ 21.7 µM); in the test on Escherichia coli it was greater than 128 µg/mL. The compound further registered a minimum inhibitory concentration (MIC) in the test with Enterococcus faecium of 16 µg/mL (≈ 21.7 µM).

With `CC[C@H]1OC(=O)[C@H](C)[C@@H](O[C@H]2C[C@@](C)(OC)[C@@H](O)[C@H](C)O2)[C@H](C)[C@@H](O[C@@H]2O[C@H](C)C[C@H](N(C)C)[C@H]2O)[C@](C)(O)C[C@@H](C)C(=O)[C@H](C)[C@@H](O)[C@]1(C)O` [ERYTHROMYCIN], the MIC is no more than 0.5 µg/mL in the test on Staphylococcus aureus [1]; no more than 0.5 µg/mL with Staphylococcus aureus [2]; greater than 128 µg/mL in the test with Staphylococcus aureus [6]; greater than 256 µg/mL against Staphylococcus aureus [7]; greater than 256 µg/mL against Staphylococcus aureus [8]; 64 µg/mL (≈ 87.2 µM) with Staphylococcus aureus [9]. The MIC in the test with Staphylococcus aureus [10], against Enterococcus faecalis, in the test on Escherichia coli and against Enterococcus faecium was greater than 256 µg/mL throughout.

Source of the values: ChEMBL document CHEMBL1140490, “Design and synthesis via click chemistry of 8,9-anhydroerythromycin A 6,9-hemiketal analogues with anti-MRSA and -VRE activity” (2007).
